One test relates to platelets. Type of test: cell-based, human. The settings on record: washed platelets, α-thrombin 1 nM. On the procedure:
Fresh whole blood was collected and mixed with 0.013 M sodium citrate and platelet-rich plasma was prepared according to the method of Meloni et al., J. Biol. Chem. 266, 6786, 1991. Washed platelets were prepared by gel filtration over Sepharose 2B columns in Hepes-Tyrode's buffer (0.137 M NaCl, 3 mM KCl, 0.4 mM Na H2 PO4, 12 mM NaHCO3, 1 mM MgCl2, 14.7 mM Hepes containing 20 mM glucose and 0.2% bovine serum albumin, pH 7.35). Platelets for aggregation and secretion studies were incubated according to the method of Schmaier et al., Blood 56, 1013, 1980 with 5-[^14 C]hydroxytryptamine for 30 min at 37° C. The washed platelets (2×10^8 /ml, final concentration radiolabeled with 5-[^14 C]hydroxytryptamine) were added to a cuvette of an aggregometer (Chronolog Corp., Havertown, Pa.), standardized using the protocol of Meloni et al., supra. After the addition of ZnCl2, final concentration 50 μM, purified HK (1 μM) or various concentrations of the peptides (0.1 to 3 mM) or buffer alone was added to the cuvette. Once the baseline stabilized, α-thrombin [0.125 U/ml (1 nM) final concentration] was then added to initiate platelet activation. Stirred platelets were allowed to incubate with o-thrombin and additions for 1 min. In other experiments, platelets were stimulated with TRAP (0.625 to 2.5 μM), ADP (1-5 μM)(Sigma), collagen (1.25 μg/ml) (Horm, Munich, Germany), or U-46619 (1 μM)(Calbiochem Behring, San Diego, Calif.). Additional experiments were performed with washed platelets stimulated with γ-thrombin (1 nM) in the presence of human fibrinogen (100 mg/dl). Both γ-thrombin and human fibrinogen were purchased from Enzyme Research Laboratories, South Bend, Ind. At the conclusion of the incubation, the entire platelet sample was centrifuged at 10,900 xg (Model E, Beckman Instruments, Palo Alto, Calif.) over a 0.135 mM formaldehyde, 5 mM EDTA solution (1 part of formaldehyde-EDTA to 4 parts of platelet suspension) and stored on ice until an aliquot of the supernatant was assayed for 5-[^14 C]hydroxytryptamine secretion. Percent secretion was determined by the ratio of the loss of 5-[^14 C]hydroxytryptamine in the supernatant of the agonist-treated specimen to the loss of 5-[^14 C]hydroxytryptamine in the supernatant of the platelet lysate after the value of the control supernatant (i.e., the level of 5-[^14 C]hydroxytryptamine in a unstimulated sample) was subtracted from both.

For the next test, the system named is human platelets. Type of test: cell-based. As for the experimental part:
The cytoplasmic free Ca^2+ concentration ([Ca^2+ ]i) was measured using the fluorescent Ca^2 + indicator fura-2 (Molecular Probes, Inc., Eugene, Oreg.). Gel filtered platelets in Hepes-Tyrode's buffer were loaded with fura-2 by incubation at 37° C. with 1 μM fura-2/acetoxymethyl ester for 45 min according to the method of Rasmussen et al., J. Biol. Chem. 268, 14322 (1993). The labeled platelets were then re-gel filtered to remove any excess probe. Aliquots of the labeled platelet suspension were transferred into a quartz cuvette with a magnetic stirrer, which was then placed in a thermostatically controlled chamber at 37° C. in a fluorescence spectrophotometer (Dual Wave Length Shimazdu SP5000 Spectrofluorometer, Shimazdu USA, Pittsburgh, Pa.). Reagents were directly added to the cuvette. The excitation wave lengths varied between 340 and 380 nm. The fluorescence was measured by recording emitted light at 510 nm as reported by Fisher et al, Mol. Pharm. 35, 195 (1989). The minimum emission was determined on a 20 mM digitonin, 10 mM EGTA solubilized platelet sample; maximum emission was determined on the same sample with 10 mM Ca^2+ added. The intraplatelet free Ca^2+ concentration was calculated by the method of Grykiewicz et al., J. Biol. Chem. 260, 3440 (1985). The ratio of the fluorescence readings was calculated as R=340/380 nm and processed according to the equation [Ca^2+ ]i =KD ((R-Rmin)/Rmax -R))(Sf2 /Sb2) to determine the intraplatelet free Ca^2+ concentration. The KD for fura-2 was assumed to be 224 nM. Rmax and Rmin are the maximum and minimum fluorescence ratios measured at the end of the experiment, respectively; Sf2 and Sb2 are the fluorescence values at 380 nm in the absence and presence of saturating [Ca^2+ ], respectively.

Like-named read-outs stand apart in the source and are kept apart here. Ends that are not written are not given here.

The term IC50 denotes the point on the concentration scale where inhibition reaches its midpoint. In the case of RPPGFSPFR [BK, bradykinin], the half-inhibitory concentration (IC50) turned out to be 250 µM in the test with platelets (read-out: IC50 AGGREGATION (inhibition of α-thrombin-induced platelet aggregation)); 1000 µM with platelets (read-out: IC50 SECRETION (inhibition of α-thrombin-induced platelet secretion)); 230 µM with human platelets (gel filtered platelets, read-out: IC50, α-thrombin-induced Ca2+ mobilization). For the same sequence, in the test with human platelets (FIG. 2, concentration not given), the “inhibition of α-thrombin-induced calcium mobilization” value was “block”.

These data come from patent US6143719A, “Bradykinin analogs as selective thrombin inhibitors” (The Regents of the University of Michigan, priority 1996, dated 2000).
